Data published in ChEMBL document CHEMBL4261583, “Discovery of potent calpain inhibitors based on the azolo-imidazolidenone scaffold” (Eur J Med Chem, 2018).
The source made the active and inactive calls. The calls are words filed in the database; no cut-off is given here.

Legend:
[1] = target: T1, Calpain-1 catalytic subunit (Homo sapiens) (UniProt P07384); assay: Inhibition of calpain (unknown origin) at 1 uM using Suc-LY-AMC as fluorogenic substrate after 60 mins by spectrofluorometric analysis relative to calpeptin
T1 sequence (whole entry): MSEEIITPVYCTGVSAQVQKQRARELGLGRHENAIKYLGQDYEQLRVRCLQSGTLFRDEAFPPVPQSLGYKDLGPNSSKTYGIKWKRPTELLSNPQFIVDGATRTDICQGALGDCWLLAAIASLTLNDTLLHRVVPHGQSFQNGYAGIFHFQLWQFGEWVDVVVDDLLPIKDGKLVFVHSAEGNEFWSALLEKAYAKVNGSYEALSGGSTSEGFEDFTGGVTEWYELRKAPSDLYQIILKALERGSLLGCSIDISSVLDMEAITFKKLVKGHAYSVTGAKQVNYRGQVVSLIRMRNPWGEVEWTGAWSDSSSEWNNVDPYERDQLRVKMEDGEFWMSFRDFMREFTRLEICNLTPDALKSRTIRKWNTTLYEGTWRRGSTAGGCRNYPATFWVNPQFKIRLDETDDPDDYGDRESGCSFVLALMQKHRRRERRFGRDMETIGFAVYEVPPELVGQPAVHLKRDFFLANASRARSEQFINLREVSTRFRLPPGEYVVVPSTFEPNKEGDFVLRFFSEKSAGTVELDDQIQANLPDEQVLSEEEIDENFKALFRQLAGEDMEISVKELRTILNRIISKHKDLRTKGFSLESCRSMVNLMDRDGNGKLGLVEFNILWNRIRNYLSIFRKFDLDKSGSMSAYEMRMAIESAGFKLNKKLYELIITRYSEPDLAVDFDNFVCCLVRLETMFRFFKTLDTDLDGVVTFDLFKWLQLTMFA

[2] = target: T2, Calpain-1 catalytic subunit (Homo sapiens, UniProt P07384); assay: Inhibition of calpain (unknown origin) using Suc-LY-AMC as fluorogenic substrate after 60 mins by spectrofluorometric analysis
T2 sequence (P07384 whole entry): T1 sequence (whole entry)

HK-2 [3] = assay: Cytoprotective activity against NaN3-induced apoptosis in human HK2 cells at 1 uM pre-incubated with 200 mM NaN3 for 30 mins followed by 24 hrs recovery with compound propidium iodide staining-based flow cytometric analysis (reference value: 27.3 +/- 4.9%); format: functional
HK-2 [4] = assay: Induction of apoptosis in human HK2 cells at 1 uM after 24 hrs by propidium iodide staining-based flow cytometric analysis (reference value: 3.8 +/- 1%); format: cell-based; conditions: hk-2, 24 h
[5] = target: T1, Calpain-1 catalytic subunit (Homo sapiens); assay: Uncompetitive inhibition of calpain (unknown origin) at 1 to 10 uM using Suc-LY-AMC as fluorogenic substrate after 60 mins by Lineweaver-Burk plot analysis
HK-2 [6] = assay: Cytoprotective activity against NaN3-induced apoptosis in human HK2 cells at 0.1 to 10 uM pre-incubated with NaN3 for 30 mins followed by 24 hrs recovery with compound propidium iodide staining-based flow cytometric analysis; format: functional, cell-based
HK-2 [7] = assay: Cytotoxicity against human HK2 cells at 0.1 to 10 uM after 24 hrs by MTT assay; format: cell-based; conditions: hk-2, 24 h

| Structure (SMILES) | inhibition [1] [%] | IC50 [2] [nM] | also measured |
| --- | --- | --- | --- |
| COCCN/C(=C1/N=CN(CCOC)C1=O)c1[nH]c2ccccc2c1I | 76.8 | 1080 |  |
| COCCN/C(=C1/N=CN(CCOC)C1=O)c1[nH]c2ccccc2c1Br | 62.9 | > 1000 |  |
| COCCN1C=N/C(=C(/NCCN(C)C)c2cc3ccccc3[nH]2)C1=O | 64.6 | > 1000 |  |
| CCCC[C@@H](C=O)NC(=O)[C@H](CC(C)C)NC(=O)OCc1ccccc1 [CALPEPTIN] |  |  | Activity (HK-2 [3]): 9.9%; Activity (HK-2 [4]): 5.9% |
| CCCCN/C(=C1/N=CN(CCOC)C1=O)c1cc2ccccc2[nH]1 | 75.4 | 350 |  |
| COCCCN/C(=C1/N=CN(CCOC)C1=O)c1cc2ccccc2[nH]1 | 71.8 | 1020 |  |
| COCCN/C(=C1/N=C(c2ccccc2)N(CCOC)C1=O)c1cc2ccccc2[nH]1 | 21.5 | > 1000 |  |
| O=C1/C(=C(\NC2CCCCC2)c2cc3cccnc3[nH]2)N=CN1C1CCCCC1 | 4.5 |  |  |
| CC(C)N/C(=C1/N=CN(C(C)C)C1=O)c1cc2cccnc2[nH]1 | 37.2 |  |  |
| COCCN/C(=C1/N=CN(CCOC)C1=O)c1cc2ccccc2[nH]1 | 73.7 | 460 | inhibition [5]: Active; Activity (HK-2 [6]): Active; Activity (HK-2 [7]): Non-Toxic |
| O=C1/C(=C(\NCc2ccccc2)c2cc3cccnc3[nH]2)N=CN1Cc1ccccc1 | 11.7 |  |  |
| CCCCN/C(=C1/N=CN(CCCC)C1=O)c1cc2ccccc2[nH]1 | 14 |  |  |
| COCCN/C(=C1/N=C(C)N(CCOC)C1=O)c1cc2ccccc2[nH]1 | 93 | 20 |  |
| CC(C)N/C(=C1/N=CN(C(C)C)C1=O)c1cc2ccccc2[nH]1 | 57.8 | > 1000 |  |
| COCCN/C(=C1/N=CN(CCOC)C1=O)c1[nH]c2ccccc2c1Cl | 71.9 | > 1000 |  |
| O=C1/C(=C(\NC2CCCCC2)c2cc3ccccc3[nH]2)N=CN1C1CCCCC1 | 9 |  |  |
| COCCN/C(=C1/N=CN(CCOC)C1=O)c1cc2cccnc2[nH]1 | 79.4 | 380 |  |
| O=C1/C(=C(\NCc2ccccc2)c2cc3ccccc3[nH]2)N=CN1Cc1ccccc1 | 28.2 |  |  |
